Measurements as given in article PMC3227451, “Structure-based development of novel sirtuin inhibitors” (Aging (Albany NY), 2011).
Like-named read-outs stand apart in the source and are kept apart here.

Columns and labels:
Assay type in all cases: biochemical
Sirt5 = target: T1, Sirt5 (Homo sapiens, UniProt Q9NXA8); test: Fluor-de-Lys peptide deacetylation assay, Sirt5
T1 construct: Sirt5 residues 34-302; His-tag with linker comprising a TEV protease cleavage site (N); made in house
T1 sequence (Q9NXA8 34-302): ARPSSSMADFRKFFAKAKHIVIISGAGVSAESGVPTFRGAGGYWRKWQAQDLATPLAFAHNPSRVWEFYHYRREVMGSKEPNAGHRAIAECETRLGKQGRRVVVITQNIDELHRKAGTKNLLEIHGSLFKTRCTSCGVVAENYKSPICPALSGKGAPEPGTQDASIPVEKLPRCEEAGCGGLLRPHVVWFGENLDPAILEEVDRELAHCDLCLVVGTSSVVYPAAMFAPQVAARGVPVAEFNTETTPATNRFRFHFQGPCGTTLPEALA
Method: (§1) Sirt3 was expressed in E. coli and purified via Ni-NTA and size exclusion chromatography as described elsewhere, and Sirt5 according to the protocol of Schuetz et al.. […] The protein was bound to the HiTrapQ column in buffer A and eluted in a gradient to buffer A supplemented with 400 mM KCl. Fractions were analyzed by SDS-PAGE, and the Sirt1 fractions were pooled and transferred into buffer A using a NAP column (GE Healthcare).
(§2) The commercial Fluor-de-Lys (FdL) assay kits 1 and 2 (Biomol, Plymouth Meeting, USA) were used to test the deacetylase activity of the four Sirtuins. In both kits the substrate derived from p53 is composed of three amino acids, the acetyl lysine and a C-terminally attached fluorophor. For Sirt2 and 3, FdL-2 peptide (QPK(acetyl-K)) was used, and FdL-1 peptide (RHK(acetyl-K)) for Sirt5 and Sirt6. All tests were done with 0.1 mM of the respective FdL peptide and 0.5 mM NAD^+ as substrates.
(§3) NCI compound stocks were prepared by dissolving them in DMSO at a concentration of 5 mM. The initial screens with all 40 compounds contained 5 μl Sirtuin solution (Sirt2/3 0.1 mg/ml stock concentration; Sirt5/6 1 mg/ml), 1 μl of compound stock (resulting in a 100 μM end concentration), 15 μl FdL substrate, and assay buffer (supplied in the assay kit) to a total volume of 50 μl. As control reactions, peptide with either the compound (without Sirtuin) or with Sirtuin and DMSO instead of compound were measured. After starting the reactions by adding the FdL substrate, assays were incubated for 30 min at 37 °C. Subsequently, 50 μl of a 10 mg/ml trypsin stock (“Developer solution”) were added and the reactions were incubated for 45 min at room temperature. Fluorescence values were measured in a fluorometric plate reader with excitation at 360 nm and read out at 485 nm. Values were then corrected with the control reaction (same compound, but without Sirtuin).
(§4) All measurements shown are averages of duplicates (screen) or triplicates (dose-response curves), and representatives of at least two independent replications. Error bars indicate standard deviations.

Sirt2 = target: T2, Sirt2 (Homo sapiens, UniProt Q8IXJ6); test: Fluor-de-Lys peptide deacetylation assay, Sirt2
T2 sequence (Q8IXJ6 34-356): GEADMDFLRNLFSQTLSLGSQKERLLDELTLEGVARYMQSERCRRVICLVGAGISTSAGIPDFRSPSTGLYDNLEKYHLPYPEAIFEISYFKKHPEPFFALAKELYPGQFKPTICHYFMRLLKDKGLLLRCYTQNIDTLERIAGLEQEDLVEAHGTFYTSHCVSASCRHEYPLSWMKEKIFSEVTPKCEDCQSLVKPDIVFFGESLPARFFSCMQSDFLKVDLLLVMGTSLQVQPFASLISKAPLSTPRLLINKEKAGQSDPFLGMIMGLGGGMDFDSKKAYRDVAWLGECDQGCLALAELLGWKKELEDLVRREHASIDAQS
Method: The Sirt2 construct was expressed in E. coli Rosetta2 cells (Merck) in LB/Ampicillin/Chloramphenicol medium. Cells were grown at 37 °C, and expression induced at an OD600 of 0.6-0.8 for 4 h with 0.5 mM IPTG. Harvested cells were resuspended in buffer A (50 mM Tris/HCl pH 7.8, 200 mM NaCl, 2 mM DTT), disrupted with a Sonifier, and cell debris removed by 40 min centrifugation at 4 °C, 18000 rpm in a HFA22.50 rotor. The supernatant was supplemented with 10 mM imidazole and incubated with Ni-NTA resin for 1 h at 4 °C. […] The protein was concentrated in an amicon unit (Millipore, Billerica, USA) and digested over night at 4 °C with TEV-protease. The protease was removed from cleaved Sirt2 by incubation with Ni-NTA resin for 1 h at 4 °C. The protein was concentrated, 1:5 diluted with 50 mM Tris/HCl, pH 7.8, and applied to a HiTrap Q anion exchange column (GE Healthcare) equilibrated with 50 mM Tris/HCl, pH 7.8, 50 mM NaCl, 2 mM DTT and eluted with a gradient (20 column volumes) to 50 mM Tris/HCl, pH 7.8, 1 M NaCl, 2 mM DTT. Sirt2 was then applied to a Superdex200 gel filtration column (GE Healthcare) equilibrated in 20 mM Tris/HCl, pH 7.8, 150 mM NaCl, 2 mM DTT. The eluted protein was analyzed by SDS-PAGE, re-concentrated, and shock-frozen in liquid nitrogen for storage at -80 °C.
as §2, §3, §4

Sirt3 = target: T3, Sirt3 (Homo sapiens, UniProt Q9NTG7); test: Fluor-de-Lys peptide deacetylation assay, Sirt3
T3 construct: Sirt3 residues 114-399; His-tag with linker comprising a TEV protease cleavage site (N); made in house; host or cells: E. coli
T3 sequence (Q9NTG7 114-399): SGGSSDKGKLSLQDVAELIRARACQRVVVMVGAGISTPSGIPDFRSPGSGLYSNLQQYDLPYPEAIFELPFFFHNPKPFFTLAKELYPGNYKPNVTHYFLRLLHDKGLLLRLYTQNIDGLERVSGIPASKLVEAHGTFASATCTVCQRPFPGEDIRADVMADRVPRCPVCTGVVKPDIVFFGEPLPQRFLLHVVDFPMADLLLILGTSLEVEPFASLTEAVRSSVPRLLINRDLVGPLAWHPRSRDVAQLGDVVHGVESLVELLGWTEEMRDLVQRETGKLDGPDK
Method: as §1, §2, §3, §4

Sirt6 = target: T4, Sirt6 (Homo sapiens, UniProt Q8N6T7); test: Fluor-de-Lys peptide deacetylation assay, Sirt6
T4 construct: Sirt6 residues 13-308; His-tag with linker comprising a TEV protease cleavage site (N, cleaved yes); made in house; host or cells: E. coli Rosetta2
T4 sequence (Q8N6T7 13-308): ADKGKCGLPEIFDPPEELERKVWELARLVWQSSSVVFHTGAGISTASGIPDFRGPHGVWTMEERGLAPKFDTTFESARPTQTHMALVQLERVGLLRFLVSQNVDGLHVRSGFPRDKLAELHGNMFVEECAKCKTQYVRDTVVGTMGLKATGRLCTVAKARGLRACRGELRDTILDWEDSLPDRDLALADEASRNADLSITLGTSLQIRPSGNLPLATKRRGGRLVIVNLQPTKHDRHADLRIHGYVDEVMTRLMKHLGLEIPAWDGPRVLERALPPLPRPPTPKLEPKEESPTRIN
Method: as §2, §3, §4

[1] = 100 μM compound, 0.1 mM FdL-1 peptide, 0.5 mM NAD+
[2] = 100 μM compound, 0.1 mM FdL-2 peptide, 0.5 mM NAD+

Compound | Effect on the activity of Sirt5 (Sirt5; [1]) | Effect on the activity of Sirt2 (Sirt2; [2]) | Effect on the activity of Sirt3 (Sirt3; [2]) | Effect on the activity of Sirt6 (Sirt6; [1]) | Effect on the activity of Sirt5 (Sirt5) | Effect on the activity of Sirt2 (Sirt2) | Effect on the activity of Sirt3 (Sirt3) | Effect on the activity of Sirt6 (Sirt6)
7-(1-naphthyl)-7^5-dibenzo[a,j]phenazin-5-amine compound with 7-(1-naphthyl)-7^5-dibenzo[a,j]phenazine-5,9-diamine (1:1), (Sudan Red) [CSC1] | inhibition (significant inhibitory effects (>25% loss of activity)) | inhibition^a (significant inhibitory effects (>25% loss of activity)) | inhibition (significant inhibitory effects (>25% loss of activity)) | inhibition (significant inhibitory effects (>25% loss of activity)) | – | – | – | –
c1ccc2c(c1)C(=Nc1ccc(N=C3c4ccccc4-c4ccccc43)cc1)c1ccccc1-2 [CSC2, N1,N4-di(9H-fluoren-9-ylidene)-1,4-benzenediamine] | --- (no such effect) | inhibition (significant inhibitory effects (>25% loss of activity)) | --- (no such effect) | --- (no such effect) | – | – | – | –
O=C1c2ccccc2-c2ccc(/N=[N+](\[O-])c3ccc4c(c3)C(=O)c3ccccc3-4)cc21 [CSC3] | --- (no such effect) | --- (no such effect) | --- (no such effect) | --- (no such effect) | – | – | – | –
Cc1cc(N2CCOCC2)nc2ccc(Cc3ccc4nc(N5CCOCC5)cc(C)c4c3)cc12 [CSC4, 4-methyl-6-((4-methyl-2-(4-morpholinyl)-6-quinolinyl)methyl)-2-(4-morpholinyl)quinoline] | --- (no such effect) | inhibition (significant inhibitory effects (>25% loss of activity)) | --- (no such effect) | --- (no such effect) | – | – | – | –
O=C1c2ccccc2C(=O)c2c(Nc3cc4c5c(ccc6c7ccc8c9c(cc(Nc%10cccc%11c%10C(=O)c%10ccccc%10C%11=O)c(c3c56)c97)-c3ccccc3C8=O)C(=O)c3ccccc3-4)cccc21 [CSC6, 16,17-bis((9,10-dioxo-9,10-dihydro-1-anthracenyl)amino)anthra[9,1,2-cde]benzo[rst]pentaphene-5,10-dione] | --- (no such effect) | inhibition (significant inhibitory effects (>25% loss of activity)) | --- (no such effect) | inhibition (significant inhibitory effects (>25% loss of activity)) | – | – | – | –
S=C(Nc1ccc2c(c1)Cc1ccccc1-2)Nc1ccc2c(c1)Cc1ccccc1-2 [CSC7, N,N'-di(9H-fluoren-2-yl)thiourea] | --- (no such effect) | inhibition (significant inhibitory effects (>25% loss of activity)) | --- (no such effect) | --- (no such effect) | – | – | – | –
CC(C)c1ccc(C=C2C=C(c3ccc4ccccc4c3)OC2=O)cc1 [CSC9, 3-(4-isopropylbenzylidene)-5-(2-naphthyl)-2(3H)-furanone] | activation^c | inhibition (significant inhibitory effects (>25% loss of activity)) | --- (no such effect) | --- (no such effect) | – | – | – | –
O=C(C[n+]1ccc2ccccc2c1)c1ccc2ccc3ccccc3c2c1 [CSC10, 2-(2^5-isoquinolin-2-yl)-1-(3-phenanthryl)ethanone] | – | – | – | – | --- (key: inhibition: significant inhibitory effects (>25% loss of activity); ---: no such effect) | inhibition (key: inhibition: significant inhibitory effects (>25% loss of activity); ---: no such effect) | inhibition (key: inhibition: significant inhibitory effects (>25% loss of activity); ---: no such effect) | inhibition (key: inhibition: significant inhibitory effects (>25% loss of activity); ---: no such effect)
O=S1(=O)CCN(c2ccccc2CC(c2c[nH]c3ccccc23)c2c[nH]c3ccccc23)CC1 [CSC11, 3-(2-(2-(1,1-dioxido-4-thiomorpholinyl)phenyl)-1-(1H-indol-3-yl)ethyl)-1H-indole] | --- (no such effect) | --- (no such effect) | --- (no such effect) | --- (no such effect) | – | – | – | –
O=S(=O)(c1ccc2ccccc2c1)N1CCN(S(=O)(=O)c2ccc3ccccc3c2)CC1 [CSC12, 1,4-bis(2-naphthylsulfonyl)piperazine] | --- (no such effect) | --- (no such effect) | --- (no such effect) | --- (no such effect) | – | – | – | –
O=C1c2cc([N+](=O)[O-])ccc2-c2ccc3c4ccc5c6c(ccc(c7ccc1c2c73)c64)C(=O)c1cc([N+](=O)[O-])ccc1-5 [CSC14, 3,12bis(hydroxy(oxido)amino)anthra[9,1,2-cde]benzo[rst]pentaphene-5,10-dione, (Amanthrene Supra Black BBN)] | – | – | – | – | inhibition (key: inhibition: significant inhibitory effects (>25% loss of activity); ---: no such effect) | inhibition (key: inhibition: significant inhibitory effects (>25% loss of activity); ---: no such effect) | --- (key: inhibition: significant inhibitory effects (>25% loss of activity); ---: no such effect) | --- (key: inhibition: significant inhibitory effects (>25% loss of activity); ---: no such effect)
Cc1nc2ccccc2nc1-c1ccc(/N=[N+](\[O-])c2ccc(-c3nc4ccccc4nc3C)cc2)cc1 [CSC15, 2-(4-(1-hydroxy-2-(4-(3-methyl-2-quinoxalinyl)phenyl)-1^5-diazenyl)phenyl)-3-methylquinoxaline] | --- (no such effect) | --- (no such effect) | --- (no such effect) | --- (no such effect) | – | – | – | –
